As a reminder, the IC50 is the concentration that inhibits the measured activity by half. What is called EC50 is the concentration at which the effect is half-maximal.

The source of these data is patent US8501238B2, “Anti-infective agents and uses thereof” (priority 2007, dated 2013).

Experiment [1] deals with T1, HCV polymerase 1A (Δ21 NS5B) (Hepatitis C virus genotype 1a, UniProt P27958).
T1 construct: 20 to 50nM Δ21 NS5B
Description: HCV Polymerase Inhibition Assay (1a). The format is biochemical. The procedure: The reaction was initiated by the addition of 20μM CTP, 20μM ATP, 1μM ^3H-UTP (10mCi/umol), 5nM template RNA and 0.1 U/μl RNase inhibitor (RNasin, Promega), and allowed to proceed for 2 to 4h at room temperature. Reaction volume was 50μl. The reaction was terminated by the addition of 1 volume of 4mM spermine in 10mM Tris-Cl pH 8.0, 1mM EDTA. After incubation for at least 15 min at room temperature, the precipitated RNA was captured by filtering through a GF/B filter (Millipore) in a 96 well format. The filter plate was washed three times with 200μl each of 2mM spermine, 10mM Tris-Cl pH 8.0, lmM EDTA, and 2 times with ethanol. After air-drying, 30μl of Microscint 20 scintillation cocktail (Packard) was added to each well, and the retained cpm were determined by scintillation counting. […] Retained cpm were plotted vs. inhibitor concentration and fit to equation 1 using non-linear regression (ref. 1) to obtain the IC50 values: Retained cpm=A[sqrt{(IC50+It−Et)^2+4*IC50*Et}−([…])]
Ref. Morrison, J. F. and S. R. Stone. […] Approaches to the study and analysis of the inhibition of enzymes by slow- and tight-binding inhibitors. Comments Mol. Cell. Biophys.
(§1) The sequence of the template RNA used was: 5′-[…]-3′

For experiment [2], the target named is T2, HCV polymerase 1B (Δ21 NS5B) (Hepatitis C virus genotype 1b, UniProt P26663).
T2 construct: 20 to 50nM Δ21 NS5B
The experiment in a line: biochemical. The procedure: Either two-fold serial dilutions (fractional inhibition assay) or a narrower range of dilutions spanning the IC50 of the inhibitor (tight binding assay) of the inhibitors were incubated with 20mM Tris-Cl pH 7.4, 2 mM MnCl2, 1 mM dithiothreitol, 1 mM ethylene diamine tetraacetic acid (EDTA), 60 to 125μM GTP and 20 to 50nM Δ21 NS5B (HCV Strain 1B (BK, Genbank accession number M58335, or H77, Genbank accession number AF011751)) for 15min at room temperature. The reaction was initiated by the addition of 20μM CTP, 20μM ATP, 1μM ^3H-UTP (10mCi/umol), 5nM template RNA and 0.1 U/μl RNase inhibitor (RNasin, Promega), and allowed to proceed for 2 to 4h at room temperature. Reaction volume was 50μl. The reaction was terminated by the addition of 1 volume of 4mM spermine in 10mM Tris-Cl pH 8.0, 1mM EDTA. After incubation for at least 15 min at room temperature, the precipitated RNA was captured by filtering through a GF/B filter (Millipore) in a 96 well format. The filter plate was washed three times with 200μl each of 2mM spermine, 10mM Tris-Cl pH 8.0, lmM EDTA, and 2 times with ethanol. After air-drying, 30μl of Microscint 20 scintillation cocktail (Packard) was added to each well, and the retained cpm were determined by scintillation counting. […] Retained cpm were plotted vs. inhibitor concentration and fit to equation 1 using non-linear regression (ref. 1) to obtain the IC50 values: Retained cpm=A[sqrt{(IC50+It−Et)^2+4*IC50*Et}−([…])]
Ref. Morrison, J. F. and S. R. Stone. 1985. Approaches to the study and analysis of the inhibition of enzymes by slow- and tight-binding inhibitors. Comments Mol. Cell. Biophys. 2: 347-368.
as §1

The subject of experiment [3] is genotype 1a-H77 subgenomic replicon cell line. The experiment in a line: microbe, parasite or virus in culture. The format is cell-based, HCV. Conditions: Hepatitis C virus, 72 h, read-out: EC50 1a.
Experiment [4] has as its system genotype 1b-Con1 subgenomic replicon cell line. The experiment in a line: microbe, parasite or virus in culture. Format: cell-based, HCV. Conditions: Hepatitis C virus, 72 h, read-out: EC50 1b.

Read-outs that look alike come from different tables or passages of the source.

T1 sequence (P27958 2421-2990, stated change not applied): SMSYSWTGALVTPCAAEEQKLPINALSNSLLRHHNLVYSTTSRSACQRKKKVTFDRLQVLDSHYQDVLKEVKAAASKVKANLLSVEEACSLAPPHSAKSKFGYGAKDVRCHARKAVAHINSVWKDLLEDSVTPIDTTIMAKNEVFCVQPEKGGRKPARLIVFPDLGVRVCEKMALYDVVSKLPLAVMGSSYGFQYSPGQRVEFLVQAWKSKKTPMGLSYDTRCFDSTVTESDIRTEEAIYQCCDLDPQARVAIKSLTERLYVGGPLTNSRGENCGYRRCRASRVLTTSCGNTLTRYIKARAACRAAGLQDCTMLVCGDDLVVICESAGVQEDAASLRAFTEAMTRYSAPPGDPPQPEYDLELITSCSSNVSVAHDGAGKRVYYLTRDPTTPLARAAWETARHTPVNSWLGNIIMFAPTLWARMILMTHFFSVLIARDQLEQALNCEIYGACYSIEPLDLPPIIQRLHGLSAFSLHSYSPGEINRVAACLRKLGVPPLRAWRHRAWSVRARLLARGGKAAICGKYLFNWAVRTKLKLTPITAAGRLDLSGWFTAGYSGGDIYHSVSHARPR
T2 sequence (P26663 2420-2989, stated change not applied): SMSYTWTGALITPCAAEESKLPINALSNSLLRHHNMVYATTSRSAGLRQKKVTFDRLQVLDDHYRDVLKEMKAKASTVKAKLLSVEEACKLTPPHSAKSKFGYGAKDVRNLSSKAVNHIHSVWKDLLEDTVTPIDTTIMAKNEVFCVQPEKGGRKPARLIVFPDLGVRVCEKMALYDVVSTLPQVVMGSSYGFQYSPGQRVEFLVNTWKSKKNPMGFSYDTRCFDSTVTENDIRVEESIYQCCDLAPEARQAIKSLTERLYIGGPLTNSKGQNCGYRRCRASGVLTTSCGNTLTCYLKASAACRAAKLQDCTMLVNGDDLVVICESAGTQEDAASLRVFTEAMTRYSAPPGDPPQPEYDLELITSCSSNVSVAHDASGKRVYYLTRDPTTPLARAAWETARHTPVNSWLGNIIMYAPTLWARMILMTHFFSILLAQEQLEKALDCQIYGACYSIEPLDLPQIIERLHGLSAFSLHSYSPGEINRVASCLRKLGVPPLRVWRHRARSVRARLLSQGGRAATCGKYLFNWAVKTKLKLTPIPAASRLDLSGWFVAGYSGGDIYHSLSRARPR

Regarding `COc1c(-c2nc3cc(NS(C)(=O)=O)ccc3[nH]2)cc(N2CCC(=O)NC2=O)cc1C(C)(C)C` [IA-L0-2.1, N-(2-(3-tert-butyl-5-(2,4-dioxotetrahydropyrimidin-1(2H)-yl)-2-methoxyphenyl)-1H-benzo[d]imidazol-5-yl)methanesulfonamide], the IC50 in experiment [1] and in experiment [2] was 100 to 1000 nM in each case. In addition, the EC50 in experiment [3] and in experiment [4] was greater than 1000 nM in each case.

`COc1c(-c2nc3ccc(NS(C)(=O)=O)cc3s2)cc(N2CCC(=O)NC2=O)cc1C(C)(C)C` [IA-L0-2.2, N-(2-(3-tert-butyl-5-(2,4-dioxotetrahydropyrimidin-1(2H)-yl)-2-methoxyphenyl)benzo[d]thiazol-6-yl)methanesulfonamide]: the 50% inhibitory concentration (IC50) in experiment [1] and in experiment [2] was 10 to 100 nM in each case. Further, the EC50 in experiment [3] was in the range of 100 to 1000 nM; in experiment [4], 10 to 100 nM.

As for `COc1c(-c2nc3ccccc3s2)cc(N2CCC(=O)NC2=O)cc1C(C)(C)C` [IA-L0-2.3, 1-(3-(benzo[d]thiazol-2-yl)-5-tert-butyl-4-methoxyphenyl)dihydro pyrimidine-2,4(1H,3H)-dione], the IC50 in experiment [1] and in experiment [2] was 100 to 1000 nM throughout. Moreover, the 50% effective concentration (EC50) in experiment [3] and in experiment [4] was 100 to 1000 nM each time.

For `COc1c(-c2nc3cc(NS(C)(=O)=O)ccc3s2)cc(N2CCC(=O)NC2=O)cc1C(C)(C)C` [IA-L0-2.4, N-(2-(3-tert-butyl-5-(2,4-dioxotetrahydropyrimidin-1(2H)-yl)-2-methoxyphenyl)benzo[d]thiazol-5-yl)methanesulfonamide], the IC50 in experiment [1] and in experiment [2] was 10 to 100 nM in each case. Moreover, the EC50 in experiment [3] was greater than 1000 nM; in experiment [4], 100 to 1000 nM.

In the case of `COc1c(-c2nc3ccc(NS(C)(=O)=O)cc3o2)cc(N2CCC(=O)NC2=O)cc1C(C)(C)C` [IA-L0-2.5, N-(2-(3-tert-butyl-5-(2,4-dioxotetrahydropyrimidin-1(2H)-yl)-2-methoxyphenyl)benzo[d]oxazol-6-yl)methanesulfonamide], the half-maximal inhibitory concentration (IC50) in experiment [1] and in experiment [2] was 100 to 1000 nM throughout. Also, the EC50 in experiment [3] and in experiment [4] was greater than 1000 nM throughout.

With `COc1c(-c2nc3ccc([N+](=O)[O-])cc3o2)cc(N2CCC(=O)NC2=O)cc1C(C)(C)C` [IA-L0-2.6, 1-(3-tert-butyl-4-methoxy-5-(6-nitrobenzo[d]oxazol-2-yl)phenyl) dihydropyrimidine-2,4(1H,3H)-dione], the concentration for half-maximal inhibition (IC50) in experiment [1] and in experiment [2] was 100 to 1000 nM throughout. The EC50 in experiment [3] and in experiment [4] was greater than 1000 nM in each case.

With `COc1c(-c2nc3cc([N+](=O)[O-])ccc3o2)cc(N2CCC(=O)NC2=O)cc1C(C)(C)C` [IA-L0-2.7, 1-(3-tert-butyl-4-methoxy-5-(5-nitrobenzo[d]oxazol-2-yl)phenyl) dihydropyrimidine-2,4(1H,3H)-dione], the concentration for half-maximal inhibition (IC50) in experiment [1] and in experiment [2] was 100 to 1000 nM in each case. Further, the EC50 was greater than 1000 nM in experiment [3] and 100 to 1000 nM in experiment [4].

As for `COc1c(-c2nc3cc(NS(C)(=O)=O)ccc3o2)cc(N2CCC(=O)NC2=O)cc1C(C)(C)C` [IA-L0-2.8, N-(2-(3-tert-butyl-5-(2,4-dioxotetrahydropyrimidin-1(2H)-yl)-2-methoxyphenyl)benzo[d]oxazol-5-yl)methanesulfonamide], the IC50 in experiment [1] and in experiment [2] was 10 to 100 nM in each case. The EC50 in experiment [3] lay within 100 to 1000 nM; in experiment [4], 10 to 100 nM.

As for `COc1c(-c2ccc3cc(NS(C)(=O)=O)ccc3c2)cc(N2CCC(=O)NC2=O)cc1C(C)(C)C` [IA-L0-2.9, N-(6-(3-tert-butyl-5-(2,4-dioxotetrahydropyrimidin-1(2H)-yl)-2-methoxyphenyl)naphthalen-2-yl)methanesulfonamide], the IC50 in experiment [1] and in experiment [2] was less than 10 nM throughout. For the same molecule, the half-maximal effective concentration (EC50) in experiment [3] and in experiment [4] was less than 10 nM each time.

Turning to `COc1c(-c2ccc3ccccc3c2)cc(-n2ccc(=O)[nH]c2=O)cc1C(C)(C)C` [IB-L0-2.1, 1-(3-tert-butyl-4-methoxy-5-(naphthalen-2-yl)phenyl)pyrimidine-2,4(1H,3H)-dione], the half-inhibitory concentration (IC50) in experiment [1] and in experiment [2] was 100 to 1000 nM each time. In addition, the EC50 is greater than 1000 nM in experiment [3] and 100 to 1000 nM in experiment [4].

In the case of `COc1ccc2cc(-c3cc(-n4ccc(=O)[nH]c4=O)cc(C(C)(C)C)c3OC)ccc2c1` [IB-L0-2.2, 1-(3-tert-butyl-4-methoxy-5-(6-methoxynaphthalen-2-yl)phenyl)pyrimidine-2,4(1H,3H)-dione], the 50% inhibitory concentration (IC50) in experiment [1] and in experiment [2] was 100 to 1000 nM throughout. For the same molecule, the 50% effective concentration (EC50) in experiment [3] and in experiment [4] was greater than 1000 nM in each case.

For `COc1c(-c2ccc3cc(NS(C)(=O)=O)ccc3c2)cc(-n2ccc(=O)[nH]c2=O)cc1C(C)(C)C` [IB-L0-2.3, N-(6-(3-tert-butyl-5-(2,4-dioxo-3,4-dihydropyrimidin-1(2H)-yl)-2-methoxyphenyl)naphthalen-2-yl)methanesulfonamide], the half-inhibitory concentration (IC50) in experiment [1] and in experiment [2] was less than 10 nM each time. The EC50 in experiment [3] and in experiment [4] was less than 10 nM throughout.

Take `COc1c(-c2ccc3c(c2)CC/C3=N\NS(C)(=O)=O)cc(-n2ccc(=O)[nH]c2=O)cc1C(C)(C)C` [IB-L0-2.4, (E)-N′-(5-(3-tert-butyl-5-(2,4-dioxo-3,4-dihydropyrimidin-1(2H)-yl)-2-methoxyphenyl)-2,3-dihydro-1H-inden-1-ylidene)methanesulfonohydrazide]: the half-inhibitory concentration (IC50) in experiment [1] and in experiment [2] was less than 10 nM each time. For the same molecule, the 50% effective concentration (EC50) in experiment [4] was less than 10 nM.

As to `CC(C)(C)c1cc(-c2ccc3cc(NS(C)(=O)=O)ccc3c2)cc(-n2ccc(=O)[nH]c2=O)c1` [IB-L0-2.8, N-(6-(3-tert-butyl-5-(2,4-dioxo-3,4-dihydropyrimidin-1(2H)-yl)phenyl)naphthalen-2-yl)methanesulfonamide], the IC50 in experiment [1] and in experiment [2] was 10 to 100 nM throughout. The EC50 in experiment [4] lay in the range of 10 to 100 nM.

As to `COc1c(-c2ccc3nc(-n4c(C)ccc4C)sc3c2)cc(-n2ccc(=O)[nH]c2=O)cc1C(C)(C)C` [IB-L0-2.47, 1-(3-tert-butyl-5-(2-(2,5-dimethyl-1H-pyrrol-1-yl)benzo[d]thiazol-6-yl)-4-methoxyphenyl)pyrimidine-2,4(1H,3H)-dione], the concentration for half-maximal inhibition (IC50) in experiment [1] and in experiment [2] was greater than 1000 nM each time.

For `COc1c(-c2ccc3cc(NS(C)(=O)=O)ccc3n2)cc(-n2ccc(=O)[nH]c2=O)cc1C(C)(C)C` [IB-L0-2.48, N-(2-(3-tert-butyl-5-(2,4-dioxo-3,4-dihydropyrimidin-1(2H)-yl)-2-methoxyphenyl)quinolin-6-yl)methanesulfonamide], the IC50 in experiment [1] and in experiment [2] was greater than 1000 nM throughout.

With `COc1c(-c2ccc3nc(NC(C)=O)sc3c2)cc(-n2ccc(=O)[nH]c2=O)cc1C(C)(C)C` [IB-L0-2.49, N-(6-(3-tert-butyl-5-(2,4-dioxo-3,4-dihydropyrimidin-1(2H)-yl)-2-methoxyphenyl)benzo[d]thiazol-2-yl)acetamide], the IC50 in experiment [1] and in experiment [2] was greater than 1000 nM in each case.

Turning to “N,N′-(6,6′-(5-(2,4-dioxo-3,4-dihydropyrimidin-1(2H)-yl)-2-methoxy-1,3-phenylene) bis(naphthalene-6,2-diyl))dimethanesulfonamide [IB-L0-2.76]”, the 50% inhibitory concentration (IC50) was 100 to 1000 nM in experiment [1] (HCV polymerase 1a, read-out: IC50 1a) and greater than 1000 nM in experiment [2] (HCV polymerase 1b, read-out: IC50 1b).
